Measured values: the supplement of paper PMC7661543
± gives the standard deviation of the averaged measurements.

How the values were obtained:
Assay in all cases: relative cell number vs DMSO control (72 h) (% of DMSO); higher = less growth inhibition (more cells)
Settings in all cases: sgRNA knockout: sgNT
[1] = system: BT-20
Description: (§1)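 QMAP-Seq: a pool of 5 breast cancer cell lines (ZR-75-1, SKBR3, HCC-38, MDA-MB-231, BT-20), each carrying 12 doxycycline-inducible Cas9 sgRNA perturbations (11 knockouts plus non-targeting sgNT), was treated with compounds for 72 h at four 10-fold doses (10 nM-10 uM or 1 nM-1 uM range). Barcodes were amplified and sequenced, and cell number was interpolated from 293T spike-in standard curves. The result is expressed as % of the median of DMSO wells. Two biological replicates.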

[2] = system: HCC-38
Description: as §1

[3] = system: MDA-MB-231
Description: as §1

[4] = system: SKBR3
Description: as §1

[5] = system: ZR-75-1
Description: as §1

SMILES | relative cell number ([1]; 10 nM) | relative cell number ([1]; 100 nM) | relative cell number ([1]; 1000 nM) | relative cell number ([1]; 10000 nM) | relative cell number ([2]; 10 nM) | relative cell number ([2]; 100 nM) | relative cell number ([2]; 1000 nM) | relative cell number ([2]; 10000 nM) | relative cell number ([3]; 10 nM) | relative cell number ([3]; 100 nM) | relative cell number ([3]; 1000 nM) | relative cell number ([3]; 10000 nM) | relative cell number ([4]; 10 nM) | relative cell number ([4]; 100 nM) | relative cell number ([4]; 1000 nM) | relative cell number ([4]; 10000 nM) | relative cell number ([5]; 10 nM) | relative cell number ([5]; 100 nM) | relative cell number ([5]; 1000 nM) | relative cell number ([5]; 10000 nM)
CC(C)(C#N)c1ccc(N2C(=O)OCc3cnc4ccc(-c5cnc6ccccc6c5)cc4c32)cc1 | 98.1 ± 10 | 102 ± 7 | 81.3 ± 1.9 | 50.8 ± 23 | 103 ± 28 | 97 ± 16 | 82.6 ± 15 | 33.2 ± 4.7 | 104 ± 25 | 94.3 ± 3.9 | 82.3 ± 23 | 49.7 ± 0.79 | 101 ± 19 | 100 ± 3 | 79.39 ± 0.72 | 49 ± 9.6 | 86.6 ± 16 | 116 ± 19 | 55.1 ± 1.7 | 38.4 ± 14
CC(C)(C(=O)NCC(F)(F)C(F)(F)F)C(=O)N[C@@H]1C(=O)Nc2ccccc2-c2ccccc21 | 102 ± 5.3 | 109 ± 5.9 | 107 ± 33 | 121 ± 1.3 | 118 ± 3.9 | 99.1 ± 4.5 | 107 ± 3.9 | 109 ± 13 | 85.7 ± 7.5 | 122 ± 30 | 104 ± 16 | 97.7 ± 28 | 91 ± 1.3 | 133 ± 6.6 | 99 ± 36 | 109 ± 22 | 76.9 ± 11 | 130 ± 2.6 | 92.1 ± 1.7 | 103 ± 30
CC(C)CC(=O)Nc1n[nH]c2c1CN(C(=O)C1CCN(C)CC1)C2(C)C | 114 ± 22 | 66.5 ± 1.9 | 43.3 ± 19 | 24.3 ± 1 | 112 ± 16 | 76.6 ± 10 | 42.4 ± 2 | 20.3 ± 0.83 | 112 ± 3.1 | 59.02 ± 0.15 | 18.8 ± 1.3 | 11 ± 4.8 | 108 ± 26 | 61.4 ± 27 | 30 ± 7.5 | 11.8 ± 1.6 | 70.6 ± 6.3 | 60.4 ± 13 | 31.4 ± 19 | 23.7 ± 10
CC(C)OC(=O)C1=CN(C(=O)c2ccc(F)c(F)c2)CC(C)(C)c2c1[nH]c1ccccc21 | 98.9 ± 6.3 | 70 ± 5.8 | 105 ± 24 | 99.6 ± 25 | 94.8 ± 12 | 89.2 ± 8.8 | 95.2 ± 4.8 | 90.8 ± 6 | 86.2 ± 4.9 | 72.1 ± 4.9 | 83.4 ± 6.3 | 130 ± 24 | 81.3 ± 2.4 | 98.8 ± 33 | 77.9 ± 12 | 89.9 ± 24 | 119 ± 27 | 123 ± 59 | 101 ± 44 | 102 ± 58
COc1cc2nc(N3CCCN(C)CC3)nc(NC3CCN(Cc4ccccc4)CC3)c2cc1OC | 82 ± 20 | 91.6 ± 8.2 | 84.4 ± 5.3 | 5.57 ± 2.9 | 111 ± 19 | 104 ± 19 | 85.8 ± 5.5 | 5.39 ± 3.1 | 123 ± 5.1 | 94.5 ± 18 | 80.2 ± 13 | 9.21 ± 8.3 | 98.3 ± 25 | 93.735 ± 0.032 | 75 ± 25 | 5.97 ± 3.4 | 102 ± 40 | 102 ± 45 | 109 ± 6.8 | 2.54 ± 0.52
COc1ccc(-c2ccc3c(N4CCOCC4)nc(N4C[C@@H](C)O[C@@H](C)C4)nc3n2)cc1CO | 110 ± 9.1 | 119 ± 17 | 77.5 ± 5.5 | 57.6 ± 7.1 | 100 ± 8.5 | 115 ± 5.9 | 92.1 ± 13 | 48.9 ± 3.5 | 85.2 ± 1.6 | 166 ± 26 | 113 ± 5.1 | 57.7 ± 19 | 84.2 ± 39 | 110 ± 26 | 80.7 ± 2.5 | 51.5 ± 6.7 | 65.9 ± 21 | 116 ± 21 | 101 ± 4.9 | 36.1 ± 2.1
